The values that follow come from PubChem BioAssay (NCI).

Some test systems named below: SNB-75 CNS; SW-620 colon; CAKI-1 renal; T-47D breast; NCI-H23 lung; DU-145 prostate; HCT-15 colon; SK-MEL-2 melanoma; HCT-116 colon; TK-10 renal.
Common to all, as to test: inhibition of tumour cell growth, NCI panel, 48 h

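Following 48 hours of exposure in 96-well plates, responses at five concentrations were used to interpolate endpoints linearly. TGI: total growth inhibition.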

Regarding `Cc1cccc2c(N)c3cccc(C(=O)NCC[N+](C)(C)Cc4sc(N5CCOCC5)nc4[N+](=O)[O-])c3nc12`, the TGI is 22.7 µM in the assay with SNB-75 CNS; over 100 µM in the assay with SW-620 colon; 4.64 µM with CAKI-1 renal; over 100 µM in the assay on T-47D breast; 15.3 µM with NCI-H23 lung; over 100 µM with DU-145 prostate. For the same compound, the TGI in the assay with HCT-15 colon amounted to 13.3 µM; in the assay on SK-MEL-2 melanoma, 45.3 µM; in the assay with HCT-116 colon it was 20.6 µM; with TK-10 renal it was 37.6 µM.

Turning to `CC1(C)Oc2ccc(Cl)cc2C12CC2`, the TGI in the assay with SNB-75 CNS was found to be 32.3 µM; with SW-620 colon it was 30.9 µM; in the assay on CAKI-1 renal, 31.2 µM; in the assay on T-47D breast, 73.8 µM; in the assay on NCI-H23 lung, 59 µM; in the assay on DU-145 prostate, 29.5 µM. Also, the TGI in the assay on HCT-15 colon worked out at 33 µM; with SK-MEL-2 melanoma, 33.4 µM; in the assay with HCT-116 colon, 29 µM; with TK-10 renal, 40.7 µM.

On to `CC(=O)NC1C(OCc2ccccc2)OC(CO)C(O)C1OCC(=O)NC(C)C(=O)NC(CCC(=O)NCCCCCC(=O)Nc1ccc2c(c1)CN1C(=O)c3ccccc3C1=N2)C(N)=O` (stereo not given), for which the TGI in the assay with SNB-75 CNS, in the assay with SW-620 colon, in the assay on CAKI-1 renal, in the assay with T-47D breast, in the assay on NCI-H23 lung and in the assay with DU-145 prostate was over 100 µM each time. Moreover, the TGI in the assay with HCT-15 colon, with SK-MEL-2 melanoma, in the assay with HCT-116 colon and in the assay on TK-10 renal was over 100 µM each time.

`C=C(C)CC1=C(C(=S)NCCO[Si](C)(C)C(C)(C)C)C(OCC)(OCC)C1=O`: the TGI in the assay with SNB-75 CNS was 36.8 µM; with SW-620 colon, 47 µM; in the assay on CAKI-1 renal, 31.9 µM; in the assay on T-47D breast it was 35.4 µM; with NCI-H23 lung it was 40.5 µM; with DU-145 prostate it was 76.3 µM. In addition, the TGI in the assay with HCT-15 colon amounted to 47.5 µM; in the assay on SK-MEL-2 melanoma, 34.4 µM; in the assay on HCT-116 colon, 50 µM; with TK-10 renal it was 34.8 µM.

In the case of `CC(C)OC(=O)c1ccc(CCC2=CC(=O)C(Br)=CC2=O)cc1`, the TGI worked out at 32.5 µM in the assay with SNB-75 CNS; 29.2 µM with SW-620 colon; 38.4 µM in the assay with CAKI-1 renal; 45 µM with T-47D breast; 26.2 µM in the assay on NCI-H23 lung; 63.3 µM in the assay with DU-145 prostate. Also, the TGI with HCT-15 colon was determined as 29.6 µM; in the assay on SK-MEL-2 melanoma, 41.7 µM; in the assay with HCT-116 colon it was 30.6 µM; with TK-10 renal, 45.3 µM.

Turning to `[N-]=[N+]=C1CNC(=O)NC1=O`, the TGI with SNB-75 CNS, with SW-620 colon, with CAKI-1 renal, in the assay on T-47D breast, in the assay with NCI-H23 lung and in the assay on DU-145 prostate was over 100 µM each time. Further, the TGI with HCT-15 colon, in the assay with SK-MEL-2 melanoma, with HCT-116 colon and with TK-10 renal was over 100 µM each time.

`Cc1ccc(S(=O)(=Nc2ccccc2)C(C(C)C)C(C)(C)Cl)cc1` (stereo not given): the TGI in the assay with SNB-75 CNS was over 50 µM; in the assay with SW-620 colon it was over 50 µM; in the assay with CAKI-1 renal, over 50 µM; with T-47D breast it was over 50 µM; in the assay with NCI-H23 lung, 46.5 µM; in the assay on DU-145 prostate, over 50 µM. Besides, the TGI is over 50 µM in the assay with HCT-15 colon, 43.9 µM in the assay on SK-MEL-2 melanoma, over 50 µM in the assay with HCT-116 colon and over 50 µM in the assay with TK-10 renal.

For the compound `Cc1ccccc1NC(=S)N=Nc1c(O)[nH]c2ccccc12`, the TGI in the assay on SNB-75 CNS, in the assay with SW-620 colon, in the assay with CAKI-1 renal, in the assay with T-47D breast, in the assay with NCI-H23 lung and with DU-145 prostate was over 100 µM each time. The TGI in the assay with HCT-15 colon, in the assay on SK-MEL-2 melanoma, in the assay with HCT-116 colon and in the assay with TK-10 renal was over 100 µM throughout.

In the case of `O=[N+]([O-])c1cccc2nc3ccccc3c(NCCC[N+]3([O-])CCCCC3)c12`, the TGI is 1.4 µM in the assay on SNB-75 CNS; over 34.8 µM in the assay on SW-620 colon; over 100 µM in the assay on CAKI-1 renal; 4.9 µM in the assay with T-47D breast; 0.622 µM in the assay on NCI-H23 lung; 1.9 µM with DU-145 prostate. Further, the TGI in the assay with HCT-15 colon was over 100 µM; with SK-MEL-2 melanoma, 0.354 µM; in the assay on HCT-116 colon, 1.04 µM; in the assay with TK-10 renal, 10.9 µM.

For the compound `O=C1c2ccccc2C2(c3ccc(Cl)cc3)NCc3ccccc3CN12` (stereo not given), the TGI with SNB-75 CNS was over 100 µM; with SW-620 colon, over 100 µM; with CAKI-1 renal, over 100 µM; in the assay with T-47D breast it was 49.9 µM; in the assay on NCI-H23 lung, 48.4 µM; in the assay with DU-145 prostate, 50.3 µM. In addition, the TGI in the assay with HCT-15 colon is 60.7 µM; with SK-MEL-2 melanoma, 29.5 µM; in the assay with HCT-116 colon, 22.6 µM; in the assay on TK-10 renal, over 100 µM.

With `COc1cc2c3c(cc(Cl)nc3c1OC)C(O)(CC(C)=O)C(=O)N2` (stereo not given), the TGI with SNB-75 CNS is over 55.9 µM; in the assay on SW-620 colon it was over 71 µM; with CAKI-1 renal, 37.7 µM; in the assay with T-47D breast, over 100 µM; in the assay on NCI-H23 lung, over 60.8 µM; with DU-145 prostate, over 53.6 µM. For the same compound, the TGI in the assay with HCT-15 colon is over 62.5 µM; in the assay with SK-MEL-2 melanoma, 45.7 µM; in the assay on HCT-116 colon, 31.3 µM; in the assay on TK-10 renal, 37.3 µM.

Take `N=C1N=C(N)c2cc3c(cc21)SCCSCCCSCCS3`: the TGI with SNB-75 CNS is 46.9 µM; in the assay with SW-620 colon, 30.7 µM; in the assay with CAKI-1 renal, over 63.4 µM; in the assay with T-47D breast, 69.1 µM; in the assay on NCI-H23 lung it was 16.2 µM; in the assay on DU-145 prostate it was 88.4 µM. For the same compound, the TGI was 32.3 µM with HCT-15 colon, 37.7 µM in the assay on SK-MEL-2 melanoma, 23.6 µM in the assay with HCT-116 colon and 28.6 µM in the assay on TK-10 renal.

For `Oc1[nH]c2ccccc2c1N=NC(=S)N1CCCCCC1`, the TGI with SNB-75 CNS amounted to 4.34 µM; with SW-620 colon, 9.23 µM; in the assay with CAKI-1 renal it was 4.62 µM; in the assay on T-47D breast, 17.6 µM; in the assay on NCI-H23 lung, 8.51 µM; in the assay with DU-145 prostate, 10.5 µM. For the same compound, the TGI in the assay on HCT-15 colon is 10 µM; in the assay with SK-MEL-2 melanoma it was 5.72 µM; in the assay on HCT-116 colon, 1.9 µM; in the assay with TK-10 renal it was 7.86 µM.
